Laboratory results taken from ChEMBL document CHEMBL3351387, “Bioisosteric replacement of an acylureido moiety attached to an indolin-2-one scaffold with a malonamido or a 2/4-pyridinoylamido moiety produces a selectively potent Aurora-B inhibitor” (Eur J Med Chem, 2014).
pIC50: −log10 of the molar value.

Tests used:
A549 [1] = experiment: Cytotoxicity against human A549 cells by SRB assay; format: cell-based
[2] = target: Platelet-derived growth factor receptor alpha (Homo sapiens, UniProt P16234); experiment: Inhibition of PDGFRalpha (unknown origin) using poly[Glu:Tyr] (4:1) substrate by radioisotope-based P81 filter-binding assay
Aurora kinase C = target: T1, Aurora kinase C (Homo sapiens, UniProt Q9UQB9); experiment: Inhibition of Aurora C (unknown origin) using H-LRRASLG substrate by radioisotope-based P81 filter-binding assay
T1 sequence (Q9UQB9 whole entry): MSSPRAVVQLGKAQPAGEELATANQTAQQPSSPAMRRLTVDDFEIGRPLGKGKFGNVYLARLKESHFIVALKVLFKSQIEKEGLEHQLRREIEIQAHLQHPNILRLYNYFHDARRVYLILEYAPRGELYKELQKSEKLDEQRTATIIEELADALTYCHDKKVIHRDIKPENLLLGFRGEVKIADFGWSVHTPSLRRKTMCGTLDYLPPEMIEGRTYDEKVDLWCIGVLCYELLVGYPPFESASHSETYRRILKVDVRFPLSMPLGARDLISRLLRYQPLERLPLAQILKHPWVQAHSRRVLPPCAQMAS

Aurora kinase A = target: T2, Aurora kinase A (Homo sapiens, UniProt O14965); experiment: Inhibition of Aurora A (unknown origin) using H-LRRASLG substrate by radioisotope-based P81 filter-binding assay
T2 sequence (O14965 whole entry): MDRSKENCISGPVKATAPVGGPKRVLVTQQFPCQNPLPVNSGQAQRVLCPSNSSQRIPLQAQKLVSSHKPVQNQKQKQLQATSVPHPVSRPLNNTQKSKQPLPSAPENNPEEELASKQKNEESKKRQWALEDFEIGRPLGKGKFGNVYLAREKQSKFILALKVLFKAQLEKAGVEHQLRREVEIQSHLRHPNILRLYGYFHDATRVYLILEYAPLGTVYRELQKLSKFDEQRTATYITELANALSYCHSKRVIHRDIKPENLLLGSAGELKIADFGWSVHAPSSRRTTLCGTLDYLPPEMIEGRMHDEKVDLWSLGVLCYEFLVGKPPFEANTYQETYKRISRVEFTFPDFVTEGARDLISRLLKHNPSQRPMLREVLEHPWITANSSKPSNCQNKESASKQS

[3] = target: Platelet-derived growth factor receptor beta (Homo sapiens, UniProt P09619); experiment: Inhibition of PDGFRbeta (unknown origin) using poly[Glu:Tyr] (4:1) substrate by radioisotope-based P81 filter-binding assay
HepG2 = experiment: Cytotoxicity against human HepG2 cells by SRB assay; format: cell-based
[4] = target: T3, Receptor-type tyrosine-protein kinase FLT3 (Homo sapiens, UniProt P36888); experiment: Inhibition of Flt3 (unknown origin) using EAIYAAPFAKKK substrate by radioisotope-based P81 filter-binding assay
T3 sequence (P36888 whole entry): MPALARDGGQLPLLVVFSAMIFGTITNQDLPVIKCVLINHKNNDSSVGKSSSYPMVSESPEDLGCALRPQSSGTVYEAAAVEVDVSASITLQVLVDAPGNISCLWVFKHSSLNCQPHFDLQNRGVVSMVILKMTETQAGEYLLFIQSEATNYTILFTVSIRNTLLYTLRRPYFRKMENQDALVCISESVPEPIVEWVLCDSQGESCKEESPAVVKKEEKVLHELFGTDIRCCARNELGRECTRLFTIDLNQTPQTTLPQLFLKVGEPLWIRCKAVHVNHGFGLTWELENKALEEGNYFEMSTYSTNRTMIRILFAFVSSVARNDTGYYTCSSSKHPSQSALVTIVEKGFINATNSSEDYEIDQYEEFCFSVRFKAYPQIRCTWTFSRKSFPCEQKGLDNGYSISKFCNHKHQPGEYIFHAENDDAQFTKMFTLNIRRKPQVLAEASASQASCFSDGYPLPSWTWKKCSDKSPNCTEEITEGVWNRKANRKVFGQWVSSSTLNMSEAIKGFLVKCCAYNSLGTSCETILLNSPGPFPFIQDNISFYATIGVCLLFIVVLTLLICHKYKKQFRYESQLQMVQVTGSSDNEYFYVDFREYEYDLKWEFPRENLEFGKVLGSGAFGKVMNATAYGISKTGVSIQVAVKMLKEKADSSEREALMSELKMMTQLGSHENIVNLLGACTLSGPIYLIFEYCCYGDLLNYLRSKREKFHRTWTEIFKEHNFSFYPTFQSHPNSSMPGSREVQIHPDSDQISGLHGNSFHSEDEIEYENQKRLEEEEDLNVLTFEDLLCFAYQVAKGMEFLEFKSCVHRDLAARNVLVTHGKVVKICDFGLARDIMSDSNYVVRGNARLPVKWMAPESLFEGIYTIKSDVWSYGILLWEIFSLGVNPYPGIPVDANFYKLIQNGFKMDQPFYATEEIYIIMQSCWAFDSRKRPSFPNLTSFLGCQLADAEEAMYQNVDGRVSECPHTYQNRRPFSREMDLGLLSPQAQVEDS

[5] = target: Vascular endothelial growth factor receptor 2 (Homo sapiens, UniProt P35968); experiment: Inhibition of VEGFR2 (unknown origin) using poly[Glu:Tyr] substrate by radioisotope-based P81 filter-binding assay
[6] = target: Hepatocyte growth factor receptor (Homo sapiens, UniProt P08581); experiment: Inhibition of c-Met (unknown origin) using KKKSPGEYVNIEFG substrate by radioisotope-based P81 filter-binding assay
Aurora kinase B = Aurora kinase B (Homo sapiens, UniProt Q96GD4); experiment: Inhibition of Aurora B (unknown origin) using H-LRRASLG substrate by radioisotope-based P81 filter-binding assay
A549 [7] = experiment: Antimigratory activity against human A549 cells assessed as inhibition of cell migration after 8 to 16 hrs by scratch wound model assay
A549 [8] = experiment: Anti-invasive activity against human A549 cells assessed as inhibition of cell invasion by transwell invasion assay

Platelet-derived growth factor receptor alpha, sequence (P16234 whole entry): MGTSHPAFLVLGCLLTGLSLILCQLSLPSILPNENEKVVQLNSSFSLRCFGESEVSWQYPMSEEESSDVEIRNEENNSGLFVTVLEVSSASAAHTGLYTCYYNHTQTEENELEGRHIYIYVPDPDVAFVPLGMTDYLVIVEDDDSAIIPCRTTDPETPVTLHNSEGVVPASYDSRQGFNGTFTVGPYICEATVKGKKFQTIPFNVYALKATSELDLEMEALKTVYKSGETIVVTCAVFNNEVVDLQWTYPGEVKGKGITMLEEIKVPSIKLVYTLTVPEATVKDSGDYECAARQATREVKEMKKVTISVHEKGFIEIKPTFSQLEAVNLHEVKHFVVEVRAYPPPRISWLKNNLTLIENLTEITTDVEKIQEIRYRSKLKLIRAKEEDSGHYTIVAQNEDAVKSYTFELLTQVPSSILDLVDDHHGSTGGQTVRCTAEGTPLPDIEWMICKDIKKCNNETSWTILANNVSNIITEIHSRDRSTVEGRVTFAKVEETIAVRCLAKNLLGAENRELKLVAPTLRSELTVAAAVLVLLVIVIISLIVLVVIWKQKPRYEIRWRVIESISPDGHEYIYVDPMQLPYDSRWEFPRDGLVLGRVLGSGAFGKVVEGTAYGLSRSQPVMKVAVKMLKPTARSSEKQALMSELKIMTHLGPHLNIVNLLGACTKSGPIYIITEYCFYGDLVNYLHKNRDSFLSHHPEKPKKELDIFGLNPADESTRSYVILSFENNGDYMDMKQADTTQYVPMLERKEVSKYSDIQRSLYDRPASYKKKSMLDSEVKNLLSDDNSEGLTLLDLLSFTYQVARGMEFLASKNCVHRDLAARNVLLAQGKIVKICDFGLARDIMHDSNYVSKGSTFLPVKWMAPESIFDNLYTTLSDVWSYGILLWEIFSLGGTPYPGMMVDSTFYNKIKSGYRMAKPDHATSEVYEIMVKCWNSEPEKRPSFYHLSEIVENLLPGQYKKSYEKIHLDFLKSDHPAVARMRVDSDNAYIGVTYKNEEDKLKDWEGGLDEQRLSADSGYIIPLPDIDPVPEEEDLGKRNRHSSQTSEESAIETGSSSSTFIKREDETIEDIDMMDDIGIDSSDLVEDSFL
Aurora kinase B, sequence (Q96GD4 whole entry): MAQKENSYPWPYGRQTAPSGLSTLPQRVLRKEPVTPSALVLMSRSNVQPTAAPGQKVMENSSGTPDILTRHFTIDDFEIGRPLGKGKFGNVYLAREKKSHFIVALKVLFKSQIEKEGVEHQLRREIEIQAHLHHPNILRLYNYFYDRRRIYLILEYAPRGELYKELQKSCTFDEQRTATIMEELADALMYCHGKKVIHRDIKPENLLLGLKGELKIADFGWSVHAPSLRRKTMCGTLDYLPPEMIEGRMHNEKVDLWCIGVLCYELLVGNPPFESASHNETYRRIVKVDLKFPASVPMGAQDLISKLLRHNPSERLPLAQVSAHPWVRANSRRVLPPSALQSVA
Platelet-derived growth factor receptor beta, sequence (P09619 whole entry): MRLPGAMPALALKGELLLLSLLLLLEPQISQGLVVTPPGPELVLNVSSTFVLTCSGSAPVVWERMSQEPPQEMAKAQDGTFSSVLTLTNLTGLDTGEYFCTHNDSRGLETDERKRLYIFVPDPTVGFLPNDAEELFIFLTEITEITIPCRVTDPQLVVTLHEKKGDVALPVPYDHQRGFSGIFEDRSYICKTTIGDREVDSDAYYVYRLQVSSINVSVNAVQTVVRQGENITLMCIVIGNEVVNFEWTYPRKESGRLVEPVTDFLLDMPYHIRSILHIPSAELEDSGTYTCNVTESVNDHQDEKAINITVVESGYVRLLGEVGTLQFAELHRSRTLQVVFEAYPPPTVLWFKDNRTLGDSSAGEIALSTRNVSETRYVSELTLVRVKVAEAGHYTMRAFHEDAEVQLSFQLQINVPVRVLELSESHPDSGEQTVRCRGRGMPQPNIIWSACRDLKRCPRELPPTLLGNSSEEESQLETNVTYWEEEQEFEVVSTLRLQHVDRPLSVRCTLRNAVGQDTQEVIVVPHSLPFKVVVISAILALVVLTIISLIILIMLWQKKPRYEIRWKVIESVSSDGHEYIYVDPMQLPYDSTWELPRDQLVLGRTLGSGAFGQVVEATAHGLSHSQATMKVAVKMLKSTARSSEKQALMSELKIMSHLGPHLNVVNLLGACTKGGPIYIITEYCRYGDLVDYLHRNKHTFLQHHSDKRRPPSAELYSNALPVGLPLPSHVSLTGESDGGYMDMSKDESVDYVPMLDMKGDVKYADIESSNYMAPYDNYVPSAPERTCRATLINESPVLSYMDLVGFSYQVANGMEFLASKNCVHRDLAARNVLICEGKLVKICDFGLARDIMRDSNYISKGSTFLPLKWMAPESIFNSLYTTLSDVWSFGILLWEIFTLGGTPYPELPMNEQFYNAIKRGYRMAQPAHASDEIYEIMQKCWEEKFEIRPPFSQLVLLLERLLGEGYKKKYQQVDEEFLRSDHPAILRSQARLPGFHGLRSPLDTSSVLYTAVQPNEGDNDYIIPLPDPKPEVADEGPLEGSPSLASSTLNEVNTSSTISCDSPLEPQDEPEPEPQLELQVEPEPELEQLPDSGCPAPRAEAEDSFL
Hepatocyte growth factor receptor, sequence (P08581 whole entry): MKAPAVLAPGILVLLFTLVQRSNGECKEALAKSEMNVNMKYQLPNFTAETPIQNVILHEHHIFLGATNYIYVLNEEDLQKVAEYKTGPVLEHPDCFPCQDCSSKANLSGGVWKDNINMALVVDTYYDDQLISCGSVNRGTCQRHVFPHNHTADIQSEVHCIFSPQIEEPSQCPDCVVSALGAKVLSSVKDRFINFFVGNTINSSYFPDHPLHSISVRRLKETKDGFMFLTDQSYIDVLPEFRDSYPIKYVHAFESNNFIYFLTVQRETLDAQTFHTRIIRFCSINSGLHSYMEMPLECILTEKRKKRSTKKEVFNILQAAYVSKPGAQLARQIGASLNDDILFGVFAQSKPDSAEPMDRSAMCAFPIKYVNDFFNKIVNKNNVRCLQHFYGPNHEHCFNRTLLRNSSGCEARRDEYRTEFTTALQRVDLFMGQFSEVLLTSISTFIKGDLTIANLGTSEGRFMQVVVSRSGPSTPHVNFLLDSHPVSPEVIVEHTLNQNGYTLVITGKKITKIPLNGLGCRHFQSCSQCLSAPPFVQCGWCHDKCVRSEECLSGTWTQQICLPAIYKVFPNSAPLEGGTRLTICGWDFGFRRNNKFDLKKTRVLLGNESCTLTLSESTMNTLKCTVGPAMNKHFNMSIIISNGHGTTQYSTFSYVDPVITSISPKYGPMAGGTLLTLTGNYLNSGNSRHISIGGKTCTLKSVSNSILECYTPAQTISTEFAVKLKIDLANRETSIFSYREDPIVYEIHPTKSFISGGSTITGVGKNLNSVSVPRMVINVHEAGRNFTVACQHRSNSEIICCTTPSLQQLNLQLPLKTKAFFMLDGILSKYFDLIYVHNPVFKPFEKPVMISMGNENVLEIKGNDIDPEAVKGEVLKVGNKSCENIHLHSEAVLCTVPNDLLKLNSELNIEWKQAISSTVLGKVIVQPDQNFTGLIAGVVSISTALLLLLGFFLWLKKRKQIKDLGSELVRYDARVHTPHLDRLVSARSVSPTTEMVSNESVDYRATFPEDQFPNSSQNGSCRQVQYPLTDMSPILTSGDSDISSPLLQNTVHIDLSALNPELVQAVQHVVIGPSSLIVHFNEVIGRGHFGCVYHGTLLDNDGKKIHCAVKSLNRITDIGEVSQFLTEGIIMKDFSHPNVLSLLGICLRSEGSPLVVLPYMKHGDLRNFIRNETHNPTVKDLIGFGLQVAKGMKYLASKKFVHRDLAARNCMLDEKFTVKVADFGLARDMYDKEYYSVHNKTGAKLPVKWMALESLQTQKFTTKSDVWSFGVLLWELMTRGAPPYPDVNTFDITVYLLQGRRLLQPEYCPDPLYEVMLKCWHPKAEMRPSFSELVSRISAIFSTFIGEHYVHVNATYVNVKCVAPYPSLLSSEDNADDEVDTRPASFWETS

| SMILES | pIC50 (A549 [1]) | pIC50 (HepG2) | other results |
| --- | --- | --- | --- |
| O=C(CC(=O)Nc1ccc2c(c1)NC(=O)/C2=C\c1ccc[nH]1)Nc1ccc(F)cc1 | 6.15 | 5.74 | pIC50 [2]: 8.14; pIC50 (Aurora kinase C): 7.17; pIC50 (Aurora kinase A): 6.26; pIC50 [3]: 7.06; pIC50 [4]: 7.96; pIC50 [5]: 5.75 |
| COc1ccc(NC(=O)CC(=O)Nc2ccc3c(c2)NC(=O)/C3=C\c2ccc[nH]2)cc1 | 5.42 | 5.55 | pIC50 [3]: 6.75; pIC50 [4]: 7.78 |
| COc1ccc(NC(=O)CC(=O)Nc2ccc3c(c2)NC(=O)/C3=C\c2[nH]c(C)c(C(=O)O)c2C)cc1 | 5.27 | 5.11 | pIC50 [6]: 7.51; pIC50 [2]: > 9.00; pIC50 (Aurora kinase B): 8.23; pIC50 (Aurora kinase C): 6.81; pIC50 (Aurora kinase A): 6.69; pIC50 [3]: 8.09; pIC50 [4]: 8.19 |
| COc1ccc(NC(=O)CC(=O)Nc2ccc3c(c2)NC(=O)/C3=C\c2[nH]c(C)c(C(=O)NCCN3CCCC3)c2C)cc1 | 5.27 | 5.29 | pIC50 [6]: 7.97; pIC50 [2]: > 9.00; pIC50 (Aurora kinase B): 7.03; pIC50 [3]: 8.81; pIC50 [4]: 8.68; pIC50 [5]: 7.68 |
| O=C1Nc2cc(NC(=O)C3(C(=O)Nc4ccc(F)cc4)CC3)ccc2/C1=C/c1ccc[nH]1 | 6.05 | 6.00 | pIC50 (Aurora kinase B): 6.60 |
| COc1ccc(NC(=O)C2(C(=O)Nc3ccc4c(c3)NC(=O)/C4=C\c3ccc[nH]3)CC2)cc1 | 5.23 | 5.41 |  |
| O=C1Nc2cccc(NC(=O)c3cccn(-c4ccc(F)cc4)c3=O)c2/C1=C/c1ccc[nH]1 | 5.32 | 5.34 |  |
| O=C1Nc2ccc(NC(=O)c3cccn(-c4ccc(F)cc4)c3=O)cc2/C1=C/c1ccc[nH]1 | 5.27 | 5.27 |  |
| O=C1Nc2c(NC(=O)c3cccn(-c4ccc(F)cc4)c3=O)cccc2/C1=C/c1ccc[nH]1 | 5.35 | 5.41 |  |
| O=C1Nc2cc(NC(=O)c3cccn(-c4ccc(F)cc4)c3=O)ccc2/C1=C/c1ccc[nH]1 | 6.15 | 6.05 | pIC50 (A549 [7]): 5.14; pIC50 (A549 [8]): < 5.00 |
| COc1ccc(-n2cccc(C(=O)Nc3ccc4c(c3)NC(=O)/C4=C\c3ccc[nH]3)c2=O)cc1 | 5.48 | 5.25 |  |
| O=C1Nc2cc(NC(=O)c3cccn(-c4ccccc4)c3=O)ccc2/C1=C/c1ccc[nH]1 | 5.33 | 5.24 |  |
| Cc1ccc(-n2cccc(C(=O)Nc3ccc4c(c3)NC(=O)/C4=C\c3ccc[nH]3)c2=O)cc1 | 5.80 | 5.38 |  |
| O=C1Nc2cc(NC(=O)c3cccn(-c4ccc(Cl)cc4)c3=O)ccc2/C1=C/c1ccc[nH]1 | 5.31 | 5.17 |  |
| O=C1Nc2cc(NC(=O)c3cccn(-c4ccc(C(F)(F)F)cc4)c3=O)ccc2/C1=C/c1ccc[nH]1 | 5.43 | 5.51 |  |
| O=C1Nc2cc(NC(=O)c3cccn(-c4cccc(Cl)c4)c3=O)ccc2/C1=C/c1ccc[nH]1 | 5.82 | 5.31 |  |
| Cn1cccc(C(=O)Nc2ccc3c(c2)NC(=O)/C3=C\c2ccc[nH]2)c1=O | 5.23 | 5.15 |  |

| SMILES | pIC50 (A549 [1]) | pIC50 (HepG2) | other results |
| --- | --- | --- | --- |
| O=C1Nc2cc(NC(=O)c3cccn(CCO)c3=O)ccc2/C1=C/c1ccc[nH]1 | 5.35 | 5.41 |  |
| Cc1[nH]c(/C=C2\C(=O)Nc3cc(NC(=O)c4cccn(-c5ccc(F)cc5)c4=O)ccc32)c(C)c1C(=O)O | 5.20 | 5.21 | pIC50 (A549 [7]): 5.10; pIC50 (A549 [8]): < 5.00 |
| Cc1[nH]c(/C=C2\C(=O)Nc3cc(NC(=O)c4cccn(C)c4=O)ccc32)c(C)c1C(=O)O | 5.18 | 5.09 |  |
| O=C1Nc2cc(NC(=O)c3c[nH]cc(-c4ccc(F)cc4)c3=O)ccc2/C1=C/c1ccc[nH]1 | 6.30 | 5.85 | pIC50 (A549 [7]): 5.18; pIC50 (A549 [8]): 5.11 |
| COc1ccc(-c2c[nH]cc(C(=O)Nc3ccc4c(c3)NC(=O)/C4=C\c3ccc[nH]3)c2=O)cc1 | 6.22 | 6.10 |  |
| O=C1Nc2cc(NC(=O)c3c[nH]cc(-c4ccccc4)c3=O)ccc2/C1=C/c1ccc[nH]1 | 6.30 | 5.96 | pIC50 (Aurora kinase B): 7.48 |
| Cc1ccc(-c2c[nH]cc(C(=O)Nc3ccc4c(c3)NC(=O)/C4=C\c3ccc[nH]3)c2=O)cc1 | 6.30 | 6.15 |  |
| O=C1Nc2cc(NC(=O)c3c[nH]cc(-c4ccc(Cl)cc4)c3=O)ccc2/C1=C/c1ccc[nH]1 | > 7.00 | 6.15 |  |
| O=C1Nc2cc(NC(=O)c3c[nH]cc(-c4ccc(C(F)(F)F)cc4)c3=O)ccc2/C1=C/c1ccc[nH]1 | 6.30 | 6.15 |  |
| O=C1Nc2cc(NC(=O)c3c[nH]cc(-c4cccc(Cl)c4)c3=O)ccc2/C1=C/c1ccc[nH]1 | 6.30 | 6.22 |  |
| Cc1c[nH]cc(C(=O)Nc2ccc3c(c2)NC(=O)/C3=C\c2ccc[nH]2)c1=O | 5.26 | 5.51 |  |
| COc1ccc(-c2c[nH]cc(C(=O)Nc3ccc4c(c3)NC(=O)/C4=C\c3[nH]c(C)c(C(=O)O)c3C)c2=O)cc1 | < 5.00 | < 5.00 |  |
| Cc1[nH]c(/C=C2\C(=O)Nc3cc(NC(=O)c4c[nH]cc(-c5ccc(F)cc5)c4=O)ccc32)c(C)c1C(=O)N1CCN(C)CC1 | 6.22 | 6.15 |  |
| Cc1[nH]c(/C=C2\C(=O)Nc3cc(NC(=O)c4c[nH]cc(-c5ccc(F)cc5)c4=O)ccc32)c(C)c1CC(=O)N1CCN(C)CC1 | 6.22 | 6.15 |  |
| Cc1[nH]c(/C=C2\C(=O)Nc3cc(NC(=O)c4c[nH]cc(-c5ccc(F)cc5)c4=O)ccc32)c(C)c1C(=O)N1CCOCC1 | 5.24 | 5.17 |  |
| Cc1[nH]c(/C=C2\C(=O)Nc3cc(NC(=O)c4c[nH]cc(-c5ccc(F)cc5)c4=O)ccc32)c(C)c1CC(=O)N1CCOCC1 | 5.28 | 5.17 |  |
| CCN(CCO)CCCOc1ccc2c(Nc3cc(CC(=O)Nc4cccc(F)c4)[nH]n3)ncnc2c1 [DEFOSBARASERTIB] | 7.00 | 7.00 | pIC50 (A549 [7]): 5.08; pIC50 (A549 [8]): 5.27 |
